Assay [1] concerns Staphylococcus Aureus 9213. Description: MIC by agar dilution (NCCLS), Staphylococcus aureus 9213. The format is cell-based. As for the experimental part: (§1) The saturated and unsaturated 3-aryl butyrolactone compounds of the present invention have useful activity against a variety of organisms. The in vitro activity of compounds of the present invention are assessed by standard testing procedures such as the determination of minimum inhibitory concentration (MIC) by agar dilution as described in "Methods for Dilution Antimicrobial Susceptiblity Tests for Bacteria That Grow Aerobically" (MFT) published January 1993 by the National Committee for Clinical Laboratory Standards. (NCCLS), 771 East Lancaster Avenue, Villanova, Pa. 19084 USA. The activity of selected compounds of the present invention against Staphylococcus aureus and Streptococcus pneumoniae are shown in Table 1.

The subject of assay [2] is Staphylococcus Pneumoniae 9912. As to the kind of experiment: MIC by agar dilution (NCCLS), Streptococcus pneumoniae 9912. The format is cell-based. To be noted: S. pneumoniae 9912. As for the experimental part:
as §1

In another assay the test system is S. aureus UC9213. As to the kind of experiment: Murine Assay, in vivo antimicrobial activity (ED50, survival). Further details: species or system Staphylococcus aureus (infected female mice). The note with it: Staphylococcus aureus, 144 h, read-out: ED50 (S. aureus UC9213, sq). As for the experimental part:
Antimicrobial activity was tested in vivo using the Murine Assay procedure. Groups of female mice (six mice of 18-20 grams each) are injected intraperitoneally with bacteria which is thawed just prior to use and suspended in brain heart infusion with 4% brewer's yeast (Staphylococcus aureus) or brain heart infusion (Streptococcus species). Antibiotic treatment at six dose levels per drug is administered one hour and five hours after infection by either oral intubation or subcutaneous routes. Survival is observed daily for six days. ED50 values based on mortality ratios are calculated using probit analysis. The subject compounds are compared against well-known antimicrobials as controls.

Molecules are shown by their SMILES. Converted amounts (≈) assume the structure as drawn. Like-named read-outs stand apart in the source and are kept apart here. Where only a bound is given, the exact number is not on record here.

Regarding `COc1ccc(-c2ccc(C3=CC(CNC(C)=O)OC3=O)cc2)ccc1=O` (centres unmarked) [Example 1, Acetamide, N-[[4-[4-[4-(2-methoxy)-5-oxo-1,3,6-cycloheptatrien-1-yl]phenyl]-2,5-dihydro-5-oxo-2-furanyl]methyl]-], the MIC in assay [1] (AUREUS9213, agar dilution, S. aureus 9213, read-out: MIC Staphylococcus Aureus 9213) was 2 µg/mL (≈ 5.47 µM); in assay [2] it was below 0.5 µg/mL. In addition, the ED50 in the assay on S. aureus UC9213 (infected ip, mice infected i.p. with S. aureus UC9213, sq treatment 1 h and 5 h after infection, survival six days, probit analysis) came out at 9.3 mg/kg.
As to `CN[C@H](CC(C)C)C(=O)N[C@H]1C(=O)N[C@@H](CC(N)=O)C(=O)N[C@H]2C(=O)N[C@H]3C(=O)N[C@H](C(=O)N[C@H](C(=O)O)c4cc(O)cc(O)c4-c4cc3ccc4O)[C@H](O)c3ccc(c(Cl)c3)Oc3cc2cc(c3O[C@@H]2O[C@H](CO)[C@@H](O)[C@H](O)[C@H]2O[C@H]2C[C@](C)(N)[C@H](O)[C@H](C)O2)Oc2ccc(cc2Cl)[C@H]1O` [Vancomycin, reference compound], in assay [1] (AUREUS9213, read-out: Vancomycin MIC), the MIC was 1 µg/mL (≈ 0.69 µM). The ED50 in the assay with S. aureus UC9213 (UC9213, infected ip) worked out at 1.9 mg/kg.

The values are drawn from patent publication US5708169A, “5-amidomethyl α,β-saturated and -unsaturated 3-aryl butyrolactone antibacterial agents” (Pharmacia & Upjohn Company, priority 1996, dated 1998).
